Measurements published in US9353171B2 (The Administrators of the Tulane Educational Fund, priority 2011, dated 2016).
Bridges are numbered along the chain shown (N, C = ends). Where no end group is shown, it is not given here.

Key:
[1] = tested on: human renal proximal tubule epithelial cells (HK-2 human kidney cells); assay: Urografin-induced injury (cytotoxicity) of HK-2 cells, lactate dehydrogenase activity in the culture medium; type: cell-based; settings: for Urografin-induced cell death of human renal proximal tubule epithelial cells: various concentrations added to the medium
Procedure: (§1) The HK-2 human kidney cells were cultured in Keratinocyte-Serum Free Medium supplemented with recombinant epidermal growth factor and bovine pituitary extract. […] Each value represents the mean plus/minus the standard error of four determinations. **p<0.01 and *p<0.05 compared to the cells treated only with Urografin.
The HK-2 human kidney cells were cultured in Keratinocyte-Serum Free Medium supplemented with recombinant epidermal growth factor and bovine pituitary extract. […] Each value represents the mean plus/minus the standard error of eight determinations. **p<0.01 and *p<0.05 compared to the cells treated only with Urografin. The ID numbers in the figure correspond to the SEQ ID NO numbers in the Sequence Listing. ID1=PACAP38, ID2=PACAP27, ID4=[D-Ser^2]PACAP38, ID5=[Aib^2]PACAP38, ID6=[D-Ser^2,Lys^38-palmitoyl]PACAP38, ID8=[Ala^22]PACAP38, ID10=[Lys^34]PACAP38, ID38=N-acetyl[Pip^3]PACAP38, ID39=[Pip^3,Ala^14,17,Aib^16,28,Lys^34, D-Lys^38]PACAP38, and ID40=[Pip^3,Ala^15,17,Aib^16,28,Lys^34,D-Lys^38]PACAP38.
(§2) At the highest dose tested, PACAP38 reduced the cell death caused by Urografin by more than 70%.

[2] = tested on: human renal proximal tubule epithelial cells (HK-2 human kidney cells); assay: Iohexol-induced inhibition of proliferation / loss of viable HK-2 cells, MTT conversion; type: cell-based; settings: for loss of viable human renal proximal tubule epithelial cells caused by iohexol: various concentrations
Procedure: as §1, with “iohexol.” for “Urografin.”

[3] = tested on: human renal proximal tubule epithelial cells (HK-2 human kidney cells); assay: Secretion of KIM-1 by HK-2 cells treated with Urografin or iohexol, ELISA of culture medium; type: cell-based; settings: 10^−6 M PACAP38, ELISA (FIG. 5)
Procedure: The HK-2 human kidney cells were cultured in Keratinocyte-Serum Free Medium supplemented with recombinant epidermal growth factor and bovine pituitary extract. The effects of 10^−6 M PACAP38 on the excretion of KIM-1 were assessed by determining the concentration of KIM-1 in the culture medium with an enzyme-linked immunosorbent assay. Each value represents the mean plus/minus the standard error of three determinations. **p<0.01 and *p<0.05 compared to the cells treated only with Urografin.
as §2

[4] = tested on: male homozygous eNOS-deficient mice; assay: Mouse model of contrast-induced nephropathy (Urografin i.v.), serum and kidney biomarkers; type: in vivo; settings: 72 h
Procedure: (§3) Male homozygous eNOS-deficient mice were given a single intravenous injection of Urografin at a dose of 1.85 g iodine/kg body weight. The mice were deprived of water for 24 hours before the start of the experiment. Twenty micrograms of PACAP38 were given intraperitoneally 1 hour before the injection of Urografin and an additional dose was given 12 hours later. The control group of mice was injected intravenously with the same volume of saline as for the injections of Urografin and PACAP38 on the same schedule. The mice were euthanized 72 hours after the injection of Urografin. The concentration of cystatin C in serum was determined with an enzyme-linked immunosorbent assay. Each value represents the mean plus/minus the standard error of five or eight determinations. **p<0.01 compared to the group treated with Urografin and saline.
as §3, with “control” for “control group of”, “mice were” for “mice was”, “Urografin. Quantification” for “Urografin. The concentration”, “of mRNA levels for KIM-1” for “of cystatin C in serum”, “was made by real-time reverse transcriptase polymerase chain reaction analyses.” for “was determined with an enzyme-linked immunosorbent assay.”
as §3, with “control” for “control group of”, “mice were” for “mice was”, “Urografin. Quantification” for “Urografin. The concentration”, “of mRNA levels for netrin-1” for “of cystatin C in serum”, “was made by real-time reverse transcriptase polymerase chain reaction analyses.” for “was determined with an enzyme-linked immunosorbent assay.”
as §3, with “control” for “control group of”, “mice were” for “mice was”, “Urografin. Quantification” for “Urografin. The concentration”, “of mRNA levels for TNF-α” for “of cystatin C in serum”, “was made by real-time reverse transcriptase polymerase chain reaction analyses.” for “was determined with an enzyme-linked immunosorbent assay.”, “**p<0.01 and *p<0.05” for “**p<0.01”
Male homozygous eNOS-deficient mice were given a single intravenous injection of Urografin at a dose of 1.85 g iodine/kg body weight. The mice were deprived of water for 24 hours before the start of the experiment. Twenty micrograms of PACAP38 were given intraperitoneally 1 hour before the injection of Urografin and an additional dose was given 12 hours later. The control mice were injected intravenously with the same volume of saline as for the injections of Urografin and PACAP38 on the same schedule. The mice were euthanized 72 hours after the injection of Urografin. […]

[5] = rat, in vivo, iv; cited from earlier work
[6] = target: T1, PAC1 receptor (Homo sapiens, UniProt P41586); settings: in words; cited from earlier work
T1 sequence (P41586 21-468): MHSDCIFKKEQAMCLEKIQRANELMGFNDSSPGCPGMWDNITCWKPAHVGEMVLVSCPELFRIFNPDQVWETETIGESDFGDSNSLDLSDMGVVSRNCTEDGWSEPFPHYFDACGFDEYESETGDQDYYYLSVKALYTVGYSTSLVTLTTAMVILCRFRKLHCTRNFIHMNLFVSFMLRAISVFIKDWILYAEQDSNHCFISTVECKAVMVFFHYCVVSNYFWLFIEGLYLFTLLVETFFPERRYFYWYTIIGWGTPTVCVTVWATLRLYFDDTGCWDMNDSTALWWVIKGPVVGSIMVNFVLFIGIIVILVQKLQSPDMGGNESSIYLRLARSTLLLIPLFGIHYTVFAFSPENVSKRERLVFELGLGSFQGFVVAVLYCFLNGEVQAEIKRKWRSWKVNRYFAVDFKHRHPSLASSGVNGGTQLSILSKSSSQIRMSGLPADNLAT

Molecule: PACAP38
- potency against Urografin-induced cell injury compared with VIP ([1]; 10^−8 M (p<0.05), 10^−7 M (p<0.01) and 10^−6 M (p<0.01) (FIG. 2)): significantly more potent than VIP
- reduction of the cell death caused by Urografin ([1]; highest dose tested, HK-2 cells, LDH in medium (FIG. 2)): more than 70%
- Urografin-induced cell death of human renal proximal tubule epithelial cells ([1]; LDH in medium (FIG. 2)): significant dose-dependent reduction
- potency as renoprotectant against iohexol compared with VIP ([2]; 10^−7 M and 10^−6 M (FIG. 4)): significantly more potent than VIP
- loss of viable human renal proximal tubule epithelial cells caused by iohexol at the highest dose ([2]; highest dose tested, MTT (FIG. 4)): almost completely prevented
- loss of viable human renal proximal tubule epithelial cells caused by iohexol ([2]; MTT (FIG. 4)): significant dose-dependent reduction
- Urografin-induced secretion of KIM-1 into the medium [3]: significantly reduced
- iohexol-induced secretion of KIM-1 into the medium [3]: significantly reduced
- Urografin-induced increase in serum levels of cystatin C ([4]; 20 μg i.p. 1 h before and 12 h after Urografin 1.85 g iodine/kg i.v., ELISA (FIG. 6)): reversed the increases
- Urografin-induced increase in kidney levels of TNF-α protein ([4]; 20 μg i.p. 1 h before and 12 h after Urografin, ELISA (FIG. 16)): reversed the increases
- Urografin-induced increase in kidney levels of TGF-β1 protein ([4]; 20 μg i.p. 1 h before and 12 h after Urografin, ELISA (FIG. 17)): reversed the increases
- Urografin-induced increase in kidney levels of MCP-1 protein ([4]; 20 μg i.p. 1 h before and 12 h after Urografin, ELISA (FIG. 18)): reversed the increases
- Urografin-induced increase in kidney levels of IFN-γ protein ([4]; 20 μg i.p. 1 h before and 12 h after Urografin, ELISA (FIG. 19)): reversed the increases
- Urografin-induced increase in serum levels of creatinine ([4]; 20 μg i.p. 1 h before and 12 h after Urografin, LC-MS/MS (FIG. 11)): reversed the increases
- Urografin-induced increase in kidney levels of KIM-1 mRNA ([4]; 20 μg i.p. 1 h before and 12 h after Urografin, real-time RT-PCR (FIG. 7)): reversed the increases
- Urografin-induced increase in kidney levels of netrin-1 mRNA ([4]; 20 μg i.p. 1 h before and 12 h after Urografin, real-time RT-PCR (FIG. 8)): reversed the increases
- Urografin-induced increase in kidney levels of TNF-α mRNA ([4]; 20 μg i.p. 1 h before and 12 h after Urografin, real-time RT-PCR (FIG. 9)): reversed the increases
- Urografin-induced increase in kidney levels of iNOS mRNA ([4]; 20 μg i.p. 1 h before and 12 h after Urografin, real-time RT-PCR (FIG. 10)): reversed the increases
- Urografin-induced increase in kidney levels of Nogo-B1 mRNA ([4]; 20 μg i.p. 1 h before and 12 h after Urografin, real-time RT-PCR (FIG. 12)): reversed the increases
- Urografin-induced increase in kidney levels of TGF-β1 mRNA ([4]; 20 μg i.p. 1 h before and 12 h after Urografin, real-time RT-PCR (FIG. 13)): reversed the increases
- Urografin-induced increase in kidney levels of Nox-4 mRNA ([4]; 20 μg i.p. 1 h before and 12 h after Urografin, real-time RT-PCR (FIG. 14)): reversed the increases
- Urografin-induced increase in kidney levels of Nox-2 mRNA ([4]; 20 μg i.p. 1 h before and 12 h after Urografin, real-time RT-PCR (FIG. 15)): reversed the increases

Molecule: [^125I]-PACAP38: radioiodinated PACAP38 used in a cited rat half-life study
- half-life in the bloodstream [5]: 5 to 6 min

Molecule: VIP (HSDAVFTDNYTRLRKQMAVKKYLNSILN-NH2; listed as Homo sapiens)
- Urografin-induced cell death of human renal proximal tubule epithelial cells ([1]; LDH in medium (FIG. 2)): significant dose-dependent reduction
- loss of viable human renal proximal tubule epithelial cells caused by iohexol ([2]; MTT (FIG. 4)): significant dose-dependent reduction

B1: Maxadilan: 61-amino-acid peptide with two disulfide bridges from salivary glands of the sand fly Lutzomyia longipalpis; conformational analog of PACAP (peptide, listed as Lutzomyia longipalpis)
chain: CDATCQFRKAIEDCRKKAHHSDVLQTSVQTTATFTSMDTSQLPGSGVFKECMKQKAKEFKA
modifications: disulfide 1-5; disulfide 14-51 (inferred)
notes: 61-amino-acid peptide with two disulfide bridges from salivary glands of the sand fly Lutzomyia longipalpis; conformational analog of PACAP
- binding to the PAC1 receptor [6]: high affinity
